Measured values as given in US8198446B2, “Crystalline micropowder particles” (Toray Industries, Inc., priority 2007, dated 2012).

Legend:
[1] = Storage stability (2): total amount of related substances by HPLC, 60° C./75% RH opened; format: physicochemical
Experimental: For comparison of storage stability, the ground pharmaceutical active substance of Comparative Example 4 (grinding for 3 min), Comparative Example 5 (grinding for 6 min) and Comparative Example 6 (grinding for 7 min), all of which were ground with Table Ball Mill (model V-2M: manufactured by Irie Shokai), were left under the storage condition of 60° C./75% RH opened, and the total amount of related substances was analyzed by HPLC 0.5 and 2 months after the start of the storage (Table 7).

[2] = Check of crystalline state and measurement of degree of crystallinity by powder X-ray diffraction; format: physicochemical; settings: powder X-ray diffraction, Xc=(Sc/(Sc+Sa))×100
Experimental: The degree of crystallinity of the crystalline finely-ground particles according to the present invention is calculated from the integrated intensity ratio of crystalline peaks and amorphous halo which are extracted from an X-ray diffraction pattern obtained by powder X-ray diffraction measurement.
The powder X-ray diffraction measurement may be carried out by using, for example, a powder X-ray diffractometer (2200/RINT Ultima+PC) manufactured by Rigaku as described in Evaluation 2 of the present invention. In preparation of a measurement sample, 100 mg of a sample material is filled in a glass sample plate (0.2 mm depth) in non-destructive condition, and the surface of the sample material is leveled out using a glass plate to obtain a measurement sample. An example of the measurement condition is as follows, which was used in the present invention.
The degree of crystallinity may be calculated by a known analysis method using diffraction patterns of a sample material and sample plate alone (without a sample material) and a difference pattern thereof. For example, using a powder X-ray diffraction pattern analysis software JADE5.0 produced by MDI, which is a commercially available analysis software, a degree of crystallinity may be calculated as follows.
• (1) A difference pattern of the diffraction patterns of a sample material and sample plate alone is smoothed (Savitzky-Goray filter: 19 points). • (2) For a display area of the difference pattern, the x-axis: diffraction angle (2θ) is set between 2 deg and 90 deg, and the y-axis: diffraction intensity (Counts) is set between 0 and 500. • (3) Points are set at diffraction angles of […], 65 and 90 deg, respectively, and a straight line parallel to the x-axis is drawn such that the line is contact with the difference diffraction pattern at a range of 65 deg to 90 deg. The area below the line is determined as a background. • (4) The background is subtracted. • (5) An integrated intensity at a range of 4 deg to 60 deg is calculated (which corresponds to a sum of the integrated intensity of crystalline peaks and an amorphous halo: Sc+Sa) • (6) Points are set at diffraction angles of 2, 7, 18, 26, 30, 35, 59, 65 and 90 deg, respectively. At 2, 65 and 90 deg, the diffraction intensity is set as 0, and at 7, 18, 26, 30, 35 and 59 deg, an approximation by a cubic spline is made such that the approximation formula is in contact with the difference pattern obtained after the subtraction of the background, thereby estimating an amorphous halo. • (7) The amorphous halo is subtracted. • (8) The integrated intensity at a range of 4 deg to 60 deg is calculated (which corresponds to the integrated intensity of the crystalline peaks: Sc). • (9) A degree of crystallinity is calculated according to the following equation. Xc=(Sc/(Sc+Sa))×100 Equation • Xc: Degree of crystallinity (%) • Sc: Integrated intensity of the crystalline peaks • Sa: Integrated intensity of the amorphous halo
For check of the crystalline state and measurement of the degree of crystallinity, powder X-ray diffraction measurement was carried out using a powder X-ray diffraction analyzer (2200/RINT Ultima+PC) manufactured by Rigaku.

[3] = Measurement of particle diameter distribution (laser diffraction, dry measurement, Mastersizer 2000); format: physicochemical; settings: for Particle Diameter Distribution D50 / Particle Diameter Distribution D90: dry measurement, volume basis
Experimental: In the present invention, D50 and D90 are indices for defining particle diameter distribution. Particle diameter distribution is usually called particle size distribution. Particles are divided into groups along with their size with appropriate intervals, and weight (volume) or particle number of the particles belonging to each group is measured to obtain the particle number (frequency) of each group. Taking the particle number (frequency) along the ordinate and taking the particle diameter along the abscissa, a particle diameter distribution is shown as a histogram, frequency curve, cumulative curve or the like. In the present invention, frequency was calculated based on volume. In the particle diameter distribution obtained in such a manner, D50 means the particle diameter at the point where the volume which is cumulatively measured from smaller particles reaches 50%, that is, the point where the cumulative frequency of the volume distribution reaches 50%. D90 means the particle diameter at the point where the volume which is cumulatively measured from smaller particles reaches 90%, that is, the point where the cumulative frequency of the volume distribution reaches 90%. Cumulative frequency (%) of particles which have a smaller diameter than a specified particle diameter can also be calculated from such a distribution chart.
Measurement of the particle diameter distribution of the crystalline finely-ground particles according to the present invention may be carried out with a commercially available apparatus using laser diffraction/scattering based on Mie Theory. For example, the measurement is carried out using a commercially available apparatus such as Malvern (registered trademark) Mastersizer Laser Diffraction Analyzer (Malvern Instruments Ltd). This analyzer irradiates He—Ne laser beam and blue light-emitting diode on particles to obtain a light scattering pattern which occurs on a detector by the irradiation, and then analyzes the light scattering pattern according to Mie Theory to determine the particle diameter distribution. […] An example of the measurement condition is as follows, which was used in Evaluation 1 of the present invention.
• Apparatus: Laser diffraction-based particle size distribution analyzer Mastersizer 2000 (Malvern) • Dry measurement unit: Scircco 2000 • Refractive Index of Samples: Real part; 1.810, Imaginary part; 0 • Time for Sample Measurement: 1 second • Time for Background Measurement: 5 seconds • Pressure: 2.0 bar • Feed Rate: 40% • Analysis Model: Single narrow mode • Calculation Sensitivity Enhanced • Particle Shape Irregular • Analysis Range: 0.020 to 2000 μm • Basis of Size Distribution Measurement: Volume
The particle diameter distribution of the subject compound was measured by dry measurement using a particle size distribution analyzer (Mastersizer 2000, manufactured by Malvern). D50 and D90 were calculated as an index of the particle diameter distribution.

[4] = Plasma concentration of drugs when administered to dogs; format: in vivo; settings: oral 10 mg/kg, 3 male beagle dogs
Experimental: The pharmaceutical active substances with a different particle diameter distribution (Example 2 and Comparative Example 2) were orally administered (10 mg/kg) to 3 male beagle dogs, and blood samples were collected at each time points to measure the drug concentration in plasma.

## O=C1c2ccccc2C(=O)N1[C@@H]1CC[C@@]2(O)[C@H]3Cc4ccc(O)c5c4[C@@]2(CCN3CC2CC2)[C@H]1O5 [Comparative Example 6, N-(17-cyclopropylmethyl-4,5α-epoxy-3,14-dihydroxy-morphinan-6β-yl)-phthalimide]
[1]; 60° C./75% RH opened, 0.5-Month Later
  Total Amount of Related Substances: 0.67%
[1]; 60° C./75% RH opened, 2-Month Later
  Total Amount of Related Substances: 1.27%
[1]; At Start of Storage
  Total Amount of Related Substances: 0.24%
[2]
  Degree of Crystallinity: 61%
[3]
  Particle Diameter Distribution D50: 23.0 μm
  Particle Diameter Distribution D90: 436 μm

## O=C1c2ccccc2C(=O)N1[C@@H]1CC[C@@]2(O)[C@H]3Cc4ccc(O)c5c4[C@@]2(CCN3CC2CC2)[C@H]1O5 [Example 2, N-(17-cyclopropylmethyl-4,5α-epoxy-3,14-dihydroxy-morphinan-6β-yl)-phthalimide]
[2]
  Degree of Crystallinity: 89%
[3]
  Cumulative Frequency of Volume Distribution Which Is Occupied by Particles with Volume-Based Particle Diameter 15 (μm) or Less: 96.3%
  Particle Diameter Distribution D50: 6.23 μm
  Particle Diameter Distribution D90: 12.4 μm
[4]
  Drug Plasma Concentration AUC 0-24 h, Average (Standard Deviation): 180.3 (40.9) ng · hr/mL
  Drug Plasma Concentration C max, Average (Standard Deviation): 18.4 (7.2) ng/mL

## O=C1c2ccccc2C(=O)N1[C@@H]1CC[C@@]2(O)[C@H]3Cc4ccc(O)c5c4[C@@]2(CCN3CC2CC2)[C@H]1O5 [Comparative Example 2, N-(17-Cyclopropylmethyl-4,5α-epoxy-3,14-dihydroxy-morphinan-6β-yl)-phthalimide]
[2]
  Degree of Crystallinity: 93%
[3]
  Cumulative Frequency of Volume Distribution Which Is Occupied by Particles with Volume-Based Particle Diameter 15 (μm) or Less: 9.4%
  Particle Diameter Distribution D50: 64.0 μm
  Particle Diameter Distribution D90: 173 μm
[4]
  Drug Plasma Concentration AUC 0-24 h, Average (Standard Deviation): 44.5 (25.4) ng · hr/mL
  Drug Plasma Concentration C max, Average (Standard Deviation): 4.8 (1.8) ng/mL
